Reference: ChEMBL document CHEMBL3885881, “DrugMatrix”

Organism: Rattus norvegicus
Assay: DrugMatrix - Regimen: Daily Repeat
Assay type: toxicity, organism-based, Sprague-Dawley
Set-up: regimen Daily Repeat, gender Male, age 6-8 weeks
Conditions: in vivo, po, route oral GAVAGE, […]; for ABSOLUTE BASOPHIL / BASOPHIL / NUCLEATED RED BLOOD CELLS / ABSOLUTE EOSINOPHIL / ABSOLUTE LYMPHOCYTE / ABSOLUTE MONOCYTE / ABSOLUTE SEGMENTED NEUTROPHIL / EOSINOPHIL / ERYTHROCYTE COUNT / HEMATOCRIT / HEMOGLOBIN / LEUKOCYTE COUNT / LYMPHOCYTE / MEAN CORPUSCULAR HEMOGLOBIN / MEAN CORPUSCULAR HEMOGLOBIN CONCENTRATION / MEAN CORPUSCULAR VOLUME / MONOCYTE / NEUTROPHIL / PLATELET COUNT: tissue Blood
[1] = 0 mg/kg, 72 h, dose level Control, time 3 day
[2] = 0 mg/kg, 120 h, dose level Control, time 5 day
[3] = 52 mg/kg, 72 h, dose level Low, time 3 day
[4] = 52 mg/kg, 72 h, tissue Plasma, dose level Low, time 3 day
[5] = 52 mg/kg, 120 h, dose level Low, time 5 day
[6] = 52 mg/kg, 120 h, tissue Plasma, dose level Low, time 5 day

In the case of `Clc1ccccc1C(c1ccccc1)(c1ccccc1)n1ccnc1` [CLOTRIMAZOLE], the “ABSOLUTE BASOPHIL” value [1] was 0 CELLS/uL, the BASOPHIL [1] was 0% and the “NUCLEATED RED BLOOD CELLS” value [1] was 0 /100WBC. For the same compound, the “ABSOLUTE BASOPHIL” value [2] was 0 CELLS/uL, the BASOPHIL [2] was 0% and the “ABSOLUTE BASOPHIL” value [3] was 0 CELLS/uL. The “ABSOLUTE EOSINOPHIL” value [3] was 0 CELLS/uL, the “ABSOLUTE LYMPHOCYTE” value [3] was 7378.33 CELLS/uL and the “ABSOLUTE MONOCYTE” value [3] was 76.67 CELLS/uL. The “ABSOLUTE SEGMENTED NEUTROPHIL” value [3] was 611.67 CELLS/uL, the BASOPHIL [3] was 0% and the EOSINOPHIL [3] was 0%. For the same compound, the “ERYTHROCYTE COUNT” value [3] was 4.96 x10E6/uL, the HEMATOCRIT [3] was 32.7% and the HEMOGLOBIN [3] was 12.97 G/DL. The “LEUKOCYTE COUNT” value [3] was 8.07 x10E3/uL, the LYMPHOCYTE [3] was 91.33% and the “MEAN CORPUSCULAR HEMOGLOBIN” value [3] was 26.17 pg. For the same compound, the “MEAN CORPUSCULAR HEMOGLOBIN CONCENTRATION” value [3] was 39.67 G/DL, the “MEAN CORPUSCULAR VOLUME” value [3] was 65.97 fL and the MONOCYTE [3] was 1%. The NEUTROPHIL [3] was 7.67%, the “NUCLEATED RED BLOOD CELLS” value [3] was 0 /100WBC and the “PLATELET COUNT” value [3] was 996.33 x10E3/uL. The “ALANINE AMINOTRANSFERASE” value [4] was 116 u/L, the ALBUMIN [4] was 3.73 G/DL and the “ALKALINE PHOSPHATASE” value [4] was 475.33 u/L. The “ASPARTATE AMINOTRANSFERASE” value [4] was 102.67 u/L, the “BLOOD UREA NITROGEN” value [4] was 13.33 mg/dL and the “CARBON DIOXIDE” value [4] was 38 mmol/L. For the same compound, the CHLORIDE [4] was 99 MEQ/L, the CHOLESTEROL [4] was 69.33 mg/dL and the “CREATINE PHOSPHOKINASE” value [4] was 256 u/L. The CREATININE [4] was 0.12 mg/dL, the GLUCOSE [4] was 158 mg/dL and the “LACTATE DEHYDROGENASE” value [4] was 99 u/L. It also gave an LIPASE [4] of 11 u/L, a PHOSPHORUS [4] of 9.1 mg/dL and a POTASSIUM [4] of 5.46 MEQ/L. The SODIUM [4] was 142.67 MEQ/L, the “TOTAL BILIRUBIN” value [4] was 0.17 mg/dL and the “TOTAL PROTEIN” value [4] was 5.43 G/DL. The “URIC ACID” value [4] was 0.57 mg/dL, the “ABSOLUTE BASOPHIL” value [5] was 0 CELLS/uL and the “ABSOLUTE EOSINOPHIL” value [5] was 0 CELLS/uL. For the same compound, the “ABSOLUTE LYMPHOCYTE” value [5] was 8088.33 CELLS/uL, the “ABSOLUTE MONOCYTE” value [5] was 127.33 CELLS/uL and the “ABSOLUTE SEGMENTED NEUTROPHIL” value [5] was 651 CELLS/uL. For the same compound, the BASOPHIL [5] was 0%, the EOSINOPHIL [5] was 0% and the “ERYTHROCYTE COUNT” value [5] was 5.31 x10E6/uL. The HEMATOCRIT [5] was 34.07%, the HEMOGLOBIN [5] was 13.3 G/DL and the “LEUKOCYTE COUNT” value [5] was 8.87 x10E3/uL. The LYMPHOCYTE [5] was 91.67%, the “MEAN CORPUSCULAR HEMOGLOBIN” value [5] was 25.1 pg and the “MEAN CORPUSCULAR HEMOGLOBIN CONCENTRATION” value [5] was 39.1 G/DL. For the same compound, the “MEAN CORPUSCULAR VOLUME” value [5] was 64.2 fL, the MONOCYTE [5] was 1.33% and the NEUTROPHIL [5] was 7%. For the same compound, the “NUCLEATED RED BLOOD CELLS” value [5] was 0 /100WBC, the “PLATELET COUNT” value [5] was 1063.67 x10E3/uL and the “ALANINE AMINOTRANSFERASE” value [6] was 68 u/L. The ALBUMIN [6] was 3.9 G/DL, the “ALKALINE PHOSPHATASE” value [6] was 421.33 u/L and the “ASPARTATE AMINOTRANSFERASE” value [6] was 83.33 u/L. For the same compound, the “BLOOD UREA NITROGEN” value [6] was 13.33 mg/dL, the “CARBON DIOXIDE” value [6] was 27.33 mmol/L and the CHLORIDE [6] was 104.33 MEQ/L. The CHOLESTEROL [6] was 79.67 mg/dL, the “CREATINE PHOSPHOKINASE” value [6] was 203.67 u/L and the CREATININE [6] was 0.34 mg/dL. For the same compound, the GLUCOSE [6] was 183 mg/dL, the “LACTATE DEHYDROGENASE” value [6] was 97.67 u/L and the LIPASE [6] was 12.67 u/L. For the same compound, the PHOSPHORUS [6] was 12.3 mg/dL, the POTASSIUM [6] was 5.8 MEQ/L and the SODIUM [6] was 144.6 MEQ/L.
